Experimental data published in publication PMC9575645 (Signal Transduction and Targeted Therapy, 2022).

Assays:
Vero E6 = assay: Cytotoxicity, MTT assay, Vero E6; assay type: cell-based, African green monkey
Procedure: (§1) The cytotoxic effects of the chemicals and their solvents were tested by the MTT assay,[44] and its procedure is described in Supplementary Information.
(§2) The cytotoxic effects of the chemicals and their solvents used were tested by the MTT assay as described previously.^10 In brief, the chemicals were dissolved in DMSO to a stock concentration of 10 mM, and then freshly serially diluted in serum-free medium before being added to cell culture monolayers. The absorbance was measured using an enzyme-linked immunosorbent assay (ELISA) reader at an optical density (OD) of 570 nm. The percent cell viability was calculated using the following formula, [(ODsample˗ODblank)/(ODcontrol˗ODblank)] × 100%. According to the cell cytotoxicity data, dose-response curves were generated for the calculation of CC50 using GraphPad Prism software version 8.4.2.

MDCK = assay: Cytotoxicity, MTT assay, MDCK; assay type: cell-based, canine
Procedure: as §1, §2

MA104 = assay: Cytotoxicity, MTT assay, MA104; assay type: cell-based, African green monkey
Procedure: as §1, §2

MARC = assay: Cytotoxicity, MTT assay, MARC; assay type: cell-based, African green monkey
Procedure: as §1, §2

[1] = tested on: LD lipolysis (FFA and glycerol release); assay: Intracellular FFA and glycerol quantification in SARS-CoV-2-infected Vero E6 cells; assay type: cell-based, African green monkey; conditions: SARS-CoV-2-infected cells; 20 µM at 18 hpi; vs vehicle-treated control
Procedure: (§3) Cells were grown in 6- or 12-well plates or 8-well chamber slides to the desired confluency and then washed twice with phosphate-buffered saline (PBS, pH 7.4). They were then mock-inoculated with medium only or virus-inoculated with various multiplicities of infection (MOI): MOI of 0.01 or 1 FFU/cell for IAV, and MOI of 0.01 or 0.1 FFU/cell for SARS-CoV-2, BCoV, PEDV, PRRSV, and PSaV. Thereafter, each inoculum was absorbed for 1 h, and the cells were washed twice with PBS (pH 7.4). As shown in Supplementary Table 4, further treatments and incubations varied dependent on the virus species used. […]
(§4) To determine intracellular levels of free fatty acids, the different cultured cells infected with or without the seven target RNA viruses, or treated with or without different concentrations of chemicals, and the lung samples from experimental mice and hamsters were prepared as described above. The amount of intracellular free fatty acid was determined using a quantification kit from BioVision according to the manufacturer’s recommendations.^31 Briefly, 5x10^6 cells or 100 mg of lung tissue were mixed with 500 μL of chloroform-Triton X-100 (1% Triton X-100 in pure chloroform) with vortexing at five-minute intervals for 20 min at 20°C. […]

[2] = tested on: LD lipolysis (FFA and glycerol release); assay: Intracellular FFA and glycerol quantification in IAV-infected A549 cells; assay type: cell-based, human; conditions: 20 µM at 12 hpi, vs vehicle-treated control
Procedure: as §3, §4

[3] = tested on: proinflammatory cytokines; assay: Proinflammatory cytokines in IAV-infected A549 cells (RT-qPCR, ELISA); assay type: cell-based, human; conditions: 20 μM
[4] = tested on: proinflammatory cytokines; assay: Proinflammatory cytokines in SARS-CoV-2-infected Vero E6 cells (RT-qPCR, ELISA); assay type: cell-based, African green monkey; conditions: 20 μM
IAV HA and M2 proteins = assay type: cell-based, Influenza A virus
[5] = tested on: Species A Rotavirus (NCDV); conditions: for IC50: Species A Rotavirus (NCDV), MA104 cells
[6] = tested on: Porcine respiratory reproductive syndrome virus (LMY); conditions: for IC50: PRRSV (LMY), MARC-145 cells

Row | SMILES | CC50 (Vero E6) [µM] | CC50 (MDCK) [µM] | CC50 (MA104) [µM] | CC50 (MARC) [µM] | levels of intracellular FFAs and glycerol [1] | levels of intracellular FFAs and glycerol [2] | proinflammatory cytokines IFN-α, IFN-β, TNF-α, IL-6, MCP-1 [3] | levels of TNF-α, IL-6, and MCP-1 [4] | palmitoylation of IAV HA and M2 proteins (IAV HA and M2 proteins) | SI (CC50/IC50) [5] | IC50 [5] [µM] | SI (CC50/IC50) [6] | IC50 [6] [µM]
1 | CN(C)C(=O)Nc1cccc(-c2ccc(N(C)C)cc2)c1 [Atglistatin] | 226 ± 2.4 | 269 ± 3.2 | 214.5 ± 2 | 212 ± 3.5 | significantly reduced | significantly reduced | significantly reduced | markedly reduced | significantly inhibited | 32 | 6.7 ± 0.49 | 84 | 2.53 ± 0.18
2 | COc1nn(-c2ccc(NC(=O)OCc3ccccc3)c(C)c2)c(=O)o1 [CAY10499] | 102 ± 8.3 | 110 ± 4.1 | 107 ± 5.6 | 101 ± 4 | significantly reduced | significantly reduced | significantly reduced | markedly reduced | significantly inhibited | 5 | 20.9 ± 5.06 | 24 | 4.21 ± 0.55
